# Data reported in PubChem BioAssay (NCI).
#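 Five concentrations, 48 hours, 96-well plates. GI50 is the concentration that inhibits growth by half. The concentration for full growth arrest is given as TGI.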
# Key:
# Assay in all cases: inhibition of tumour cell growth, NCI panel, 48 h
# HS 578T breast = system: HS 578T breast
# SK-MEL-5 melanoma = system: SK-MEL-5 melanoma
# SNB-19 CNS = system: SNB-19 CNS
# M14 melanoma = system: M14 melanoma
# ACHN renal = system: ACHN renal
# RXF 393 renal = system: RXF 393 renal
# UACC-62 melanoma = system: UACC-62 melanoma
# BT-549 breast = system: BT-549 breast
# HOP-92 NSCLC = system: HOP-92 NSCLC
# NCI-H460 lung = system: NCI-H460 lung
SMILES,GI50 (HS 578T breast) [µM],TGI (HS 578T breast) [µM],GI50 (SK-MEL-5 melanoma) [µM],TGI (SK-MEL-5 melanoma) [µM],GI50 (SNB-19 CNS) [µM],TGI (SNB-19 CNS) [µM],GI50 (M14 melanoma) [µM],TGI (M14 melanoma) [µM],GI50 (ACHN renal) [µM],TGI (ACHN renal) [µM],GI50 (RXF 393 renal) [µM],TGI (RXF 393 renal) [µM],GI50 (UACC-62 melanoma) [µM],TGI (UACC-62 melanoma) [µM],GI50 (BT-549 breast) [µM],TGI (BT-549 breast) [µM],GI50 (HOP-92 NSCLC) [µM],TGI (HOP-92 NSCLC) [µM],GI50 (NCI-H460 lung) [µM],TGI (NCI-H460 lung) [µM]
N#Cc1cnc2cc(OC[C@H](O)CO)c(NC(=O)CC3CSSC3)cc2c1Nc1ccc(OCc2cccc(F)c2)c(Cl)c1,0.447,1.69,0.841,1.59,0.447,1.43,0.139,0.447,1.73,5.42,0.987,1.85,0.807,1.68,0.133,0.43,2.23,8.04,0.126,0.298
CCN(CC)S(=O)(=O)c1ccc(OC)c(Nc2ncc(-c3ccccc3)o2)c1,> 14.4,> 25,> 12.2,> 25,> 19.2,> 25,> 25,> 25,> 22.7,> 25,> 10.6,> 25,> 18.3,> 25,> 18.4,> 25,7.12,> 25,> 23.1,> 25
CC(C)(C)C[C@H]1NC(C(=O)NCC[C@H](O)CO)[C@H](c2cccc(Cl)c2)[C@@]12C(=O)Nc1cc(Cl)c(F)cc12 (some centres undefined),16,60.4,6.73,20,21.1,59.8,16.6,33.7,3.28,16.3,13.7,27.1,1.6,15.8,16.3,34.2,13.3,28.4,2.45,14.6
C=CCc1c2c(c(OC)c3ccoc13)C(=O)/C(=C/c1ccccc1OC)O2,5.29,> 100,3.91,92,5.83,> 100,8.19,> 100,4.33,> 100,2.47,6.92,4.14,58.4,4.44,> 100,2.07,6.2,3.46,> 100
COc1cccc(/C=C/C(=O)c2cccc(Nc3nc(Nc4ccccc4)nc(Nc4ccccc4)n3)c2)c1,15.8,61.7,13,> 77.1,> 56.9,> 100,19.3,> 72.2,67.3,> 100,10.7,35.6,> 100,> 100,21.7,> 72.1,1.24,50.5,9.01,> 61.8
COC(=O)[C@H](Cc1cn(C)cn1)NC(=O)[C@H](Cc1c[nH]c2ccccc12)NC(=O)Nc1cc(C(F)(F)F)cc(C(F)(F)F)c1,> 10,> 10,> 10,> 10,> 10,> 10,> 10,> 10,> 10,> 10,> 10,> 10,> 10,> 10,> 10,> 10,> 10,> 10,> 10,> 10
COc1cc(Cl)cc(-c2nn(C(=O)NCCN3CCOCC3)cc2-c2ccncc2)c1,6.38,41,2.59,13.1,7.58,> 100,5.42,39.5,5.52,90.2,2.67,19.9,3.72,20.4,3.87,35.2,4.35,84.6,3.81,> 100
CCN1C(=O)N(CC)C2C1NN=c1s/c(=C\c3cccnc3)c(=O)n12 (centres undefined),0.44,> 100,0.344,12.6,0.676,> 100,0.298,> 100,0.694,> 100,0.271,3.35,0.417,> 100,1.04,19.9,,> 100,0.4,> 100
COc1c(CCC[P+](c2ccccc2)(c2ccccc2)c2ccccc2)cc2c(c1OC)OCO2,1.72,13.4,1.33,2.81,1.44,12.9,2.22,19.2,5.34,29.5,2.05,11.6,0.569,5.53,1.24,15,0.507,4.93,1.45,4.56
O=C(CC(=O)CC(O)(C(F)(F)F)C(F)(F)F)CC(O)(C(F)(F)F)C(F)(F)F,,> 10,,> 10,,> 10,,> 10,,> 10,,> 10,,> 10,,> 10,,> 10,,> 10
Cc1ccc2c(ccc3c[n+]4c5ccccc5ccc4n32)c1,0.959,4.71,1.01,2.33,0.494,3.38,1.35,4.68,4.12,> 100,2.52,8.81,0.795,2.32,0.434,2.41,1.54,5.47,1.2,5.41
COc1ccc(N2C(C)=C(C#N)C34C(=O)N(c5ccccc5)C(=O)C3=C(O)C=CC24O)cc1 (centres undefined),24.1,> 100,11.4,28.2,18.4,50.2,13.6,38.6,18.2,45.6,3.15,14.7,5.06,18.7,9.75,22.4,12.5,45.3,14.6,61.4
COC1(C(=O)N[C@@H](C)c2ccc(-n3cc(F)cn3)nc2)CCC(c2nc(C)cc(Nc3cc(C)[nH]n3)n2)CC1 (some centres undefined),0.248,1.31,3.18,10.4,2.29,51.4,3.03,17.7,1.01,3.49,0.177,0.665,4.14,17.4,0.627,6.01,0.481,2.58,5.2,18.5
C[C@@H](C(=O)Nc1ccc(Cl)cc1)C1CCC(c2ccnc3ccc(F)cc23)CC1 (some centres undefined),9.3,68.5,3.22,11.8,10.8,> 100,7.12,> 100,4.61,> 100,3.6,26.7,10.3,47.2,3.72,22.8,2.85,9.15,4.3,45.5
CCN(Cc1ccc(F)c(F)c1)c1ccc(CO)c(Cl)c1,12.4,40,5.85,20.3,12.6,27.8,14,30.2,9.77,22.8,2.73,15.9,0.12,0.919,11.3,25,0.835,12.2,0.253,10.7
CN1CCN(CCc2cccc(C(=O)c3cnn(-c4ccc(F)cc4)c3N)c2)CC1,> 25,> 25,> 25,> 25,> 25,> 25,> 25,> 25,> 25,> 25,> 25,> 25,> 25,> 25,> 25,> 25,> 25,> 25,> 25,> 25
Nc1c(C(=O)Nc2cccc([N+](=O)[O-])c2)sc2nc3c(cc12)C(O)CCC3 (centres undefined),11,> 100,3.59,> 100,18.7,> 100,3.39,> 100,30.6,> 100,6.76,> 65.8,5.93,> 100,7.76,57.3,9.54,> 67,4.93,> 100
CCCCOc1ccc(NC(N)=Nc2ccc(Cl)cc2)cc1,,21,,2.1,,20,,11.6,,12.7,,25.5,,26,,23.4,,16,,8.91
